Data from US11833178B2, “Bifidobacterium longum for treating obesity and weight management” (priority 2017, dated 2023).
In brackets after ≈: the same amount, converted by molar mass.

Test system: Bifidobacterium longum APC1472
Assay: Antibiotic susceptibility (VetMIC plates, ISO 10932:2010)
Assay type: cell-based, Bifidobacterium longum ssp. longum
Conditions: APC1472, 48 h, read-out: MICs
Procedure: Antibiotic susceptibility was tested with […] plates Lact-1 and Lact-2 supplied from SVA (National Veterinary Institute, Uppsala, Sweden). […] MICs were determined as 80% or more reduction in pellet, compared to positive control lane. Borderline cases were interpreted by visual examples from “Methods for Antimicrobial Susceptibility Testing of Anaerobic Bacteria: Approved Standard” (CLSI, 7th edition).

Compound	MIC
CN[C@H](CC(C)C)C(=O)N[C@H]1C(=O)N[C@@H](CC(N)=O)C(=O)N[C@H]2C(=O)N[C@H]3C(=O)N[C@H](C(=O)N[C@H](C(=O)O)c4cc(O)cc(O)c4-c4cc3ccc4O)[C@H](O)c3ccc(c(Cl)c3)Oc3cc2cc(c3O[C@@H]2O[C@H](CO)[C@@H](O)[C@H](O)[C@H]2O[C@H]2C[C@](C)(N)[C@H](O)[C@H](C)O2)Oc2ccc(cc2Cl)[C@H]1O [Va, Vancomycin]	0.5 µg/mL (≈ 0.345 µM)

Same assay, conditions: APC1472, range of MICs for duplicate experiments, 37° C., 48 h, read-out: MICs

MIC	Compound
64 to 128 µg/mL (≈ 110 to 220 µM)	[H]/N=C(/N)N[C@H]1[C@H](O)[C@@H](O)[C@H](O[C@@H]2O[C@@H](C)[C@](O)(C=O)[C@H]2O[C@@H]2O[C@@H](CO)[C@H](O)[C@@H](O)[C@@H]2NC)[C@@H](N/C(N)=N\[H])[C@@H]1O [Sm, Streptomycin]
0.06 to 0.12 µg/mL (≈ 0.0818 to 0.164 µM)	CC[C@H]1OC(=O)[C@H](C)[C@@H](O[C@H]2C[C@@](C)(OC)[C@@H](O)[C@H](C)O2)[C@H](C)[C@@H](O[C@@H]2O[C@H](C)C[C@H](N(C)C)[C@H]2O)[C@](C)(O)C[C@@H](C)C(=O)[C@H](C)[C@@H](O)[C@]1(C)O [Em, Erythromycin]

Further lines, the molecule ahead of its results:

Compound	MIC
CC1(C)S[C@@H]2[C@H](NC(=O)[C@H](N)c3ccccc3)C(=O)N2[C@H]1C(=O)O [Am, Ampicillin]	2 µg/mL (≈ 5.72 µM)
CN(C)[C@@H]1C(O)=C(C(N)=O)C(=O)[C@@]2(O)C(O)=C3C(=O)c4c(O)cccc4[C@@](C)(O)[C@H]3C[C@@H]12 [Tc, Tetracycline]	1 µg/mL (≈ 2.25 µM)
O=C(N[C@H](CO)[C@H](O)c1ccc([N+](=O)[O-])cc1)C(Cl)Cl [Cm, Chloramphenicol]	2 µg/mL (≈ 6.19 µM)
